Values of other authors, collected in PubChem BioAssay AID1259409 (Chemical Carcinogenesis Research Information System (CCRIS), 2018).

Test system: rodent chemically induced tumor inhibition, incidence and multiplicity
Test: CCRIS tumor inhibitor studies

CC(C)=CCc1cc(/C=C/C(=O)O)cc(CC=C(C)C)c1O
tumour outcome (control, treated, inhibition, significance) (Carcinogen: FERRIC NITRILOTRIACETATE, 16448-54-7, Dose [Inhibitor]: 0, 350 UG/MOUSE IN OLIVE OIL TWICE/D FOR 5 D/WK FOR 1 YR BEGINNING POST CARCINOGEN TREATMENT (STUDY DURATION: 1 YR AND 8, Route [Inhibitor]: ORAL, Species: MOUSE, Strain/Sex: DDY/MALE, Target Tissue: Type of Lesion: KIDNEY: CARCINOMA, Dose [Carcinogen]: 43.6 MG/KG BW/D TWICE/WK FOR FIRST 8 WK, Promoter: NONE): 1/9 (11%), 0/6 (0%), 100%, not significant

CCCCOCCOCCOCc1cc2c(cc1CCC)OCO2
tumour outcome (control, treated, inhibition, significance) (Carcinogen: N-NITROSODIETHYLAMINE, 55-18-5, Dose [Inhibitor]: 400 MG/KG IN 0.2 ML SESAME OIL (TOTAL VOL 0.1 ML) 2 HR PRIOR TO EACH CARCINOGEN DOSE (STUDY DURATION: 21 WK), Route [Inhibitor]: SUBCUTANEOUS, Species: HAMSTER, Strain/Sex: SYRIAN/MALE, Target Tissue: Type of Lesion: LUNG: ADENOMA, ADENOCARCINOMA, Dose [Carcinogen]: 17.8 MG/KG IN 0.9% SALINE (TOTAL VOL 0.1 ML) 2/WK FOR 20 WK, Promoter: NONE USED): 6/10 (60%), 0/10 (0%), 100%, p<0.01

CCCCCCCCCCCCCCCC
tumour outcome (control, treated, inhibition, significance) (Carcinogen: BENZO[A]PYRENE, 50-32-8, Dose [Inhibitor]: 25 MG IN 0.1 ML ACETONE 3/WK ADMINISTERED SIMULTANEOUSLY WITH CARCINOGEN FOR DURATION OF STUDY (STUDY DURATION: 440 D), Route [Inhibitor]: DERMAL, Species: MOUSE, Strain/Sex: ICR/FEMALE, Target Tissue: Type of Lesion: SKIN: PAPILLOMA, Dose [Carcinogen]: 5 UG IN 0.1 ML ACETONE 3/WK FOR DURATION OF STUDY, Promoter: NONE USED): 16/50 (32%), 5/50 (10%), 69%, not calculated
tumour outcome (control, treated, inhibition, significance) (Carcinogen: BENZO[A]PYRENE, 50-32-8, Dose [Inhibitor]: 25 MG IN 0.1 ML ACETONE 3/WK ADMINISTERED SIMULTANEOUSLY WITH CARCINOGEN FOR DURATION OF STUDY (STUDY DURATION: 440 D), Route [Inhibitor]: DERMAL, Species: MOUSE, Strain/Sex: ICR/FEMALE, Target Tissue: Type of Lesion: SKIN: SQUAMOUS CARCINOMA, Dose [Carcinogen]: 5 UG IN 0.1 ML ACETONE 3/WK FOR DURATION OF STUDY, Promoter: NONE USED): 12/50 (24%), 2/50 (4%), 83%, not calculated

CC(O)CCC(=O)c1ccccc1 (stereo unspecified)
tumour outcome (control, treated, inhibition, significance) (Carcinogen: 4-(METHYLNITROSAMINO)-1-(3-PYRIDYL)-1-BUTANONE, 64091-91-4, Dose [Inhibitor]: 0, 25 UMOL IN 0.1 ML CORN OIL ONCE 2 HR PRIOR TO CARCINOGEN DOSE (STUDY DURATION: 16 WK), Route [Inhibitor]: GAVAGE, Species: MOUSE, Strain/Sex: STRAIN-A/FEMALE, Target Tissue: Type of Lesion: LUNG: ADENOMA, Dose [Carcinogen]: 10 UMOL IN 0.1 ML SALINE ONCE, Promoter: NONE USED): 100%, 95%, 5%, not significant
tumour outcome (control, treated, inhibition, significance) (Carcinogen: 4-(METHYLNITROSAMINO)-1-(3-PYRIDYL)-1-BUTANONE, 64091-91-4, Dose [Inhibitor]: 0, 25 UMOL IN 0.1 ML CORN OIL ONCE 2 HR PRIOR TO CARCINOGEN DOSE (STUDY DURATION: 16 WK), Route [Inhibitor]: GAVAGE, Species: MOUSE, Strain/Sex: STRAIN-A/FEMALE, Target Tissue: Type of Lesion: LUNG: TUMOR, Dose [Carcinogen]: 10 UMOL IN 0.1 ML SALINE ONCE, Promoter: NONE USED): 100%, 100%, 0%, not significant

c1cc2c(cc1[C@H]1OC[C@@H]3[C@H]1CO[C@H]3c1ccc3c(c1)OCO3)OCO2
tumour outcome (control, treated, inhibition, significance) (Carcinogen: 4-NITROQUINOLINE-N-OXIDE, 56-57-5, Dose [Inhibitor]: 0, 2.5 MG/100 ML DRINKING WATER (TOTAL WEEKLY DOSE 1.26 MG) FOR 25 WK BEGINNING 5 WK POST CARCINOGEN DOSE (STUDY DURATIO, Route [Inhibitor]: ORAL, Species: MOUSE, Strain/Sex: ICR/FEMALE, Target Tissue: Type of Lesion: LUNG: TUMOR, Dose [Carcinogen]: 0.3 MG ONCE, Promoter: GLYCEROL, 56-81-5): 87%, 47%, 46%, p<0.05
tumour outcome (control, treated, inhibition, significance) (Carcinogen: 7,12-DIMETHYLBENZ[A]ANTHRACENE, 57-97-6, Dose [Inhibitor]: 0, 85 NMOL IN 0.1 ML ACETONE 2/WK FOR 20 WK APPLIED 1 HR PRIOR TO EACH PROMOTER DOSE (STUDY DURATION: 20 WK), Route [Inhibitor]: DERMAL, Species: MOUSE, Strain/Sex: ICR/FEMALE, Target Tissue: Type of Lesion: SKIN: PAPILLOMA, Dose [Carcinogen]: 100 UG IN 0.1 ML ACETONE ONCE, Promoter: 12-O-TETRADECANOYLPHORBOL-13-ACETATE, 16561-29-8): 100%, 85%, 15%, not calculated

O=S(=O)([O-])[O-].O=S(=O)([O-])[O-].O=S(=O)([O-])[O-].[Mo]
tumour outcome (control, treated, inhibition, significance) (Carcinogen: N-METHYL-N-BENZYLNITROSAMINE, 937-40-6, Dose [Inhibitor]: 0, 2 PPM IN DIET FOR 1 WK PRIOR TO CARCINOGEN (STUDY DURATION: 25 WK), Route [Inhibitor]: ORAL, Species: RAT, Strain/Sex: F344/MALE, Target Tissue: Type of Lesion: ESOPHAGUS: CARCINOMA, Dose [Carcinogen]: 2.5 MG/KG 1/WK FOR 20 WK): 30/41 (73%), 20/45 (44%), 40%, p<0.01

CCCCC(C)N=C=S (stereo unspecified)
tumour outcome (control, treated, inhibition, significance) (Carcinogen: 4-(METHYLNITROSAMINO)-1-(3-PYRIDYL)-1-BUTANONE, 64091-91-4, Dose [Inhibitor]: 0, 1 UMOL ONCE 2 HR PRIOR TO CARCINOGEN DOSE (STUDY DURATION: 16 WK), Route [Inhibitor]: GAVAGE, Species: MOUSE, Strain/Sex: STRAIN-A/FEMALE, Target Tissue: Type of Lesion: LUNG: ADENOMA, Dose [Carcinogen]: 10 UMOL IN 0.1 ML SALINE ONCE, Promoter: NONE USED): 100%, 70%, 30%, p<0.05
tumour outcome (control, treated, inhibition, significance) (Carcinogen: 4-(METHYLNITROSAMINO)-1-(3-PYRIDYL)-1-BUTANONE, 64091-91-4, Dose [Inhibitor]: 0, 5 UMOL ONCE 2 HR PRIOR TO CARCINOGEN DOSE (STUDY DURATION: 16 WK), Route [Inhibitor]: GAVAGE, Species: MOUSE, Strain/Sex: STRAIN-A/FEMALE, Target Tissue: Type of Lesion: LUNG: ADENOMA, Dose [Carcinogen]: 10 UMOL IN 0.1 ML SALINE ONCE, Promoter: NONE USED): 100%, 30%, 70%, p<0.05

O=CC[C@@H](O)[C@H](O)[C@H](O)CO
outcome (Carcinogen: 1-METHYL-1-NITROSOUREA [684-93-5], Dose [Inhibitor]: 0, 0.02, 0.03% IN DIET 6 D AFTER CARCINOGEN FOR 5 WKS, Route [Inhibitor]: DIET, Species: RAT, Strain/Sex: SPRAGUE-DAWLEY/FEMALE (30,30)/(30,30)/(30,30), Target Tissue: Type of Lesion: MAMMARY GLAND: ADENOCARCINOMA, Dose [Carcinogen]: 50 MG/KG BW AT 21 D OF AGE (STUDY DURATION: 6-7 WKS)): 25/30 (83.3%); 15/30 (50%), 40%, p<0.001; 15/30 (50%), 40%, p<0.001

CCCCc1cccs1
tumour outcome (control, treated, inhibition, significance) (Carcinogen: BENZO[A]PYRENE, 50-32-8, Dose [Inhibitor]: 0, 45 UMOL IN 0.2 ML COTTONSEED OIL 3/WK FOR 4 WK BEGINNING 1 DAY PRIOR TO FIRST CARCINOGEN DOSE AND TERMINATING 1 DAY A, Route [Inhibitor]: GAVAGE, Species: MOUSE, Strain/Sex: STRAIN-A/FEMALE, Target Tissue: Type of Lesion: FORESTOMACH: TUMOR, Dose [Carcinogen]: 1 MG 2/WK FOR 4 WK, Promoter: NONE USED): 14/17 (82%), 9/18 (50%), 39%, p<0.05
tumour outcome (control, treated, inhibition, significance) (Carcinogen: BENZO[A]PYRENE, 50-32-8, Dose [Inhibitor]: 0, 45 UMOL IN 0.2 ML COTTONSEED OIL 3/WK FOR 4 WK BEGINNING 1 DAY PRIOR TO FIRST CARCINOGEN DOSE AND TERMINATING 1 DAY A, Route [Inhibitor]: GAVAGE, Species: MOUSE, Strain/Sex: STRAIN-A/FEMALE, Target Tissue: Type of Lesion: LUNG: TUMOR, Dose [Carcinogen]: 1 MG 2/WK FOR 4 WK, Promoter: NONE USED): 17/17 (100%), 18/18 (100%), 0%, not significant
tumour outcome (control, treated, inhibition, significance) (Carcinogen: BENZO[A]PYRENE, 50-32-8, Dose [Inhibitor]: 0, 90 UMOL IN 0.2 ML COTTONSEED OIL 3/WK FOR 4 WK BEGINNING 1 DAY PRIOR TO FIRST CARCINOGEN DOSE AND TERMINATING 1 DAY A, Route [Inhibitor]: GAVAGE, Species: MOUSE, Strain/Sex: STRAIN-A/FEMALE, Target Tissue: Type of Lesion: FORESTOMACH: TUMOR, Dose [Carcinogen]: 1 MG 2/WK FOR 4 WK, Promoter: NONE USED): 14/17 (82%), 9/13 (69%), 16%, not significant
tumour outcome (control, treated, inhibition, significance) (Carcinogen: BENZO[A]PYRENE, 50-32-8, Dose [Inhibitor]: 0, 90 UMOL IN 0.2 ML COTTONSEED OIL 3/WK FOR 4 WK BEGINNING 1 DAY PRIOR TO FIRST CARCINOGEN DOSE AND TERMINATING 1 DAY A, Route [Inhibitor]: GAVAGE, Species: MOUSE, Strain/Sex: STRAIN-A/FEMALE, Target Tissue: Type of Lesion: LUNG: TUMOR, Dose [Carcinogen]: 1 MG 2/WK FOR 4 WK, Promoter: NONE USED): 17/17 (100%), 13/13 (100%), 0%, not significant
